Earlier results, collected in US20230143309A1, “PYRROLOBENZODIAZEPINE ANTIBODY CONJUGATES” (priority 2016, published 2023).

Tests used:
human tumour cell lines = conditions: for activity against a range of human tumour cell lines: quoted from UCL REF 2014 impact study
[1] = test system: human tumour xenograft models; conditions: quoted from UCL REF 2014 impact study

| SMILES | cytotoxicity relative to SG2057 (less cytotoxic) (human tumour cell lines; Hartley et al 2012) | activity against a range of human tumour cell lines (human tumour cell lines) | activity in human tumour xenograft models [1] |
| --- | --- | --- | --- |
| C=C1C[C@H]2C=Nc3cc(OCCCOc4cc5c(cc4OC)C(=O)N4CC(=C)C[C@H]4C=N5)c(OC)cc3C(=O)N2C1 [SG2000] | at least 10 times | – | – |
| C=C1C[C@H]2C=Nc3cc(OCCCCCOc4cc5c(cc4OC)C(=O)N4CC(=C)C[C@H]4C=N5)c(OC)cc3C(=O)N2C1 [SG2057] | – | picomolar/sub-picomolar activity | curative activity |
| COc1ccc(C2=CN3C(=O)c4cc(OC)c(OCCCOc5cc6c(cc5OC)C(=O)N5C=C(c7ccc(OC)cc7)C[C@H]5C=N6)cc4N=C[C@@H]3C2)cc1 [SG2202] | – | picomolar/sub-picomolar activity | curative activity |
